Converted amounts (≈) assume the structure as drawn. Read-outs that look alike come from different tables or passages of the source.
Tests used:
[1] = system: Enterococcus faecalis S613 HM-334; assay: MIC, broth microdilution (CLSI); type: cell-based; conditions: Enterococcus faecalis
Procedure: (§1) The minimum inhibitory concentrations (MICs) of the compounds and control drugs were determined using the broth microdilution method, according to guidelines outlined by the Clinical and Laboratory Standards Institute (CLSI). Enterococci strains were grown aerobically overnight on tryptone soya agar plates at 37° C., afterwards a bacterial solution equivalent to 0.5 McFarland standard was prepared and diluted in tryptone soy broth (TSB) to achieve a bacterial concentration of about 5×10^5 CFU/mL and seeded in 96-well well plates. Compounds and control drugs were added in the first row of the 96-well plates and serially diluted along the plates. Plates were then incubated aerobically at 37° C. for 18-20 hours. MICs reported in Table 1 are the minimum concentration of the compounds/control drugs that could inhibit completely the visual growth of the bacteria.
(§2) The minimum inhibitory concentrations (MICs) of CAIs were tested against clinical isolates of vancomycin sensitive and vancomycin resistant Enterococci strains as per the guidelines provided by the Clinical and Laboratory Standards Institute (CLSI). The selected strains of Enterococci were streaked on Tryptic Soy Agar (TSA) plates and let grow for 24 hours at 37° C. Afterwards, a bacterial solution equivalent to 0.5 McFarland standard was prepared and diluted in tryptone soy broth (TSB) or brain heart infusion broth (BHIB) to achieve a bacterial concentration of about 5×10^5 CFU/mL and seeded in 96-well well plates. Compounds and control drugs were added in the first row of the 96-well plates and serially diluted along the plates. Plates were then incubated aerobically at 37° C. for 18-20 hours. MICs reported in Table 5 are the minimum concentration of the compounds/control drugs that could inhibit completely the visual growth of the bacteria.
The minimum inhibitory concentrations (MICs) of CAIs were tested against vancomycin resistant Enterococcus faecalis—S613 HM 334 strain as per the guidelines provided by the Clinical and Laboratory Standards Institute (CLSI). The selected strain was streaked on Tryptic Soy Agar (TSA) plate and let grow for 24 hours at 37° C. […] Compounds and control drugs were added in the first row of the 96-well plates and serially diluted along the plates. Plates were then incubated aerobically at 37° C. for 18-20 hours. MICs reported in table (6) are the minimum concentration of the compounds/control drugs that could inhibit completely the visual growth of the bacteria.

gut microbiota = system: gut microbiota; design: species or system C57BL/6 mice; conditions: mouse, in vivo, po, 10 mg/kg
Procedure: CAIs had no major impact on microbiota composition. An extremely promising and innovative feature of CAIs is their narrow spectrum of activity and their ability to decolonize VRE without harming the microbiome. […] To characterize the impact of CAIs administration on the composition of the gut microbiota we performed the following assay6. Female 12-week-old C57BL/6 mice (n=5 mice per group) were exposed to CAIs by oral gavage for 10 days (10 mg/kg daily). Twenty-four hours after last dose, mice were euthanized and cecal and colon contents were harvested. The microbiome was characterized using 16S rDNA gene sequencing. The microbiotas from treated mice were compared to those from a group of control mice. […] However, at the phylum level, we observed decrease in Firmicutes in CAIs treatment groups and likely due to decrease of enterococci as enterococcus is a large genus of the phylum Firmicutes. The Verrucomicrobia and Bacteroidetes remain constant while other phyla increase to fill the remaining percentage from Firmicute loss. […] Indeed, the use of traditional antibiotics can increase the selective pressure and contribute to the selection of other multi-drug-resistant organisms (Kofteridis D. et al., Int J Infect Dis 2009, 13, e313-315).

[2] = system: Enterococcus fecalis Strain MMH594 - NR31975; assay: microbe, parasite or virus in culture; type: cell-based; conditions: Table 7; TSB
Procedure: as §1

[3] = system: Enterococcus fecalis Strain SF 24397 NR31970; assay: MIC, broth microdilution (CLSI); type: cell-based
Procedure: as §1, §2

[4] = system: Enterococcus faecium Patient #3-1 NR-31912; assay: MIC, broth microdilution (CLSI); type: cell-based; conditions: Table 7; TSB
Procedure: as §1

[5] = system: Enterococcus fecalis Strain SF 28073 - NR31972; assay: MIC, broth microdilution (CLSI); type: cell-based; conditions: Table 7; TSB
Procedure: as §1

[6] = system: Enterococcus fecalis Strain SF24413 NR31971; assay: MIC, broth microdilution (CLSI); type: cell-based; conditions: Table 7; TSB
Procedure: as §1

[7] = system: Bacteroides dorei CL02T12C06 HM-719; assay: MIC against human normal gut microbiota; type: cell-based; conditions: Phocaeicola dorei, 48 h
Procedure: (§3) Three different bacterial strains were used in this experiment; Bifidobacterium (anaerobic Gram positive bacteria), Bacteroides (anaerobic Gram negative bacteria) and Lactobacillus (microaerophilic Gram positive bacteria). Bifidobacterium and Bacteroides were first grown for 48 hours at 37° C., anaerobically using brain heart infusion supplemented (BHIS) agar (Brain heart infusion agar supplemented with hemin, vitamin K and L-cysteine). Lactobacillus was cultivated on MRS agar and incubated in presence of 5% CO2 for 48 hours at 37° C. Each bacterium was suspended in phosphate buffered saline (PBS) to produce a suspension with optical density that matches 0.5 McFarland standard and diluted in brain heart infusion supplemented broth (for Bifidobacterium and Bacteroides) or in MRS broth (for Lactobacillus) to achieve bacterial concentration of approximately 5×10^5 CFU/ml. Bacteria were then seeded in 96-well plates containing serial dilutions of the compounds and incubated as mentioned previously for 48 hours.

[8] = system: Bacteroides fragilis CL07T00C01 HM-709; assay: MIC against human normal gut microbiota; type: cell-based; conditions: 48 h
Procedure: as §3

[9] = system: Bifidobacterium breve JCP7499 HM 1120; assay: MIC against human normal gut microbiota; type: cell-based; conditions: JCP7499HM1120, 48 h
Procedure: as §3

[10] = system: vancomycin-resistant E. faecium; assay: Mouse model of GI colonization by VRE; type: in vivo, C57BL/6 mice; conditions: 10 mg/kg oral gavage for 8 days; feces as early as 3rd day
Excerpt: Feasibility in vivo study: AZM reduces VRE load in the intestines and faeces. The promising feature, and the specific and potent antimicrobial activity of CAIs, prompted us to evaluate the in vivo efficacy of AZM in our established mouse model of GI colonization by enterococci with features that mimic the antibiotic-induced enterococcal expansion observed in humans (Mohammad, H. et al., Int J Antimicrob Agents 2018, 51, 897-904; Abdelkhalek, A, et al., PLoS One 2018, 13, e0199710). We tested AZM (two clinical doses 10 and 20 mg/kg) in female 12-week-old C57BL/6 mice (n=5 mice per group) that were sensitized with ampicillin ([…] in drinking water) for 7 days to reduce the microbiota present in the gastrointestinal tract and colonized with 10^8 CFU/mL of vancomycin-resistant E. faecium.
We thought that the rapid absorption of AZM from the gastrointestinal tract would limit their exposure time to VRE present in the gastrointestinal tract.
Mice were treated for 8 days with 10 mg/kg of drugs by oral gavage.

[11] = type: in vivo; conditions: 200 mg/kg twice daily (400 mg/kg daily) for three days

## CCN[C@H]1C[C@H](C)S(=O)(=O)c2sc(S(N)(=O)=O)cc21 [Dorzolamide]
[1]; S613HM334, Table 5, BHIB, read-out: MIC
  MIC: > 128 µg/mL
[1]; S613HM334, Table 5, TSB, read-out: MIC
  MIC: 8 µg/mL (≈ 24.7 µM)
[1]; S613HM334, Table 6, TSB in presence of 4% human serum albumin, read-out: MIC
  MIC: > 256 µg/mL
Gut microbiota
  taxonomic structure and composition of microbiota: no major shift or change

## CN[C@H](CC(C)C)C(=O)N[C@H]1C(=O)N[C@@H](CC(N)=O)C(=O)N[C@H]2C(=O)N[C@H]3C(=O)N[C@H](C(=O)N[C@H](C(=O)O)c4cc(O)cc(O)c4-c4cc3ccc4O)[C@H](O)c3ccc(c(Cl)c3)Oc3cc2cc(c3O[C@@H]2O[C@H](CO)[C@@H](O)[C@H](O)[C@H]2O[C@H]2C[C@](C)(N)[C@H](O)[C@H](C)O2)Oc2ccc(cc2Cl)[C@H]1O [Vancomycin, reference compound]
[2]
  MIC: 2 µg/mL (≈ 1.38 µM)
[3]; Table 5, BHIB
  MIC: 2 µg/mL (≈ 1.38 µM)
[3]; Table 5, TSB
  MIC: 2 µg/mL (≈ 1.38 µM)
[3]; Table 7, TSB
  MIC: 2 µg/mL (≈ 1.38 µM)
[4]
  MIC: >64 µg/mL
[5]
  MIC: >64 µg/mL
[6]
  MIC: 32 µg/mL (≈ 22.1 µM)
[1]; S613HM334, Table 1, TSB
  MIC: > 64 µg/mL
[1]; S613HM334, Table 5, BHIB
  MIC: > 128 µg/mL
[1]; S613HM334, Table 5, TSB
  MIC: > 128 µg/mL
[1]; S613HM334, Table 7, TSB
  MIC: > 64 µg/mL
[7]
  MIC: 64 µg/mL (≈ 44.2 µM)
[8]
  MIC: 64 µg/mL (≈ 44.2 µM)
[9]
  MIC: 8 µg/mL (≈ 5.52 µM)

## NS(=O)(=O)c1nnc(NCc2ccccc2C(F)(F)F)s1 [analog 8]
[10]
  reduction of VRE in the feces, cecum and ileum compared with AZM and linezolid: superior to AZM and linezolid
[11]
  survival: all the mice survived
